Measured values published in patent US20230414555A1, “USE OF DIHYDROMYRICETIN AS EPIGENETIC ACTIVE INGREDIENT FOR COSMETIC OR DERMATOLOGICAL SKIN CARE” (BEIERSDORF AG, priority 2020, published 2023).

How the values were obtained:
recombinant DNMT1 enzyme = biological target: T1, recombinant DNMT1 enzyme (Homo sapiens, UniProt P26358); assay: cell-free DNMT Activity/Inhibition Assay (Active Motif); type: biochemical; conditions: manufacturer's standard protocol, FIG. 1
T1 construct: purchased Active Motif, Belgium
Description: Here, the assay manufacturer's standard protocol was used.

[1] = system: DNA methylation of 850 000 CpGs in the epidermis; assay: in vivo study: epidermal DNA methylation by EPIC technology after cream application and UV irradiation; conditions: verum cream on lower back for two weeks, UV 0.8 MED on three consecutive days, compared to unirradiated control, n=32, FIG. 2
Method: To this end, test subjects (n=32) applied cream comprising a vehicle and a verum including dihydromyricetin to the lower back for two weeks. After the two-week treatment period, the test subjects were irradiated with UV (0.8 MED) on three consecutive days in order to imitate an age-relevant environmental influence. 24 hours after the final UV irradiation, suction blisters were produced and the epidermis was harvested. The DNA was isolated from the epidermis and the state of the DNA methylation of 850 000 CpGs was determined by means of EPIC technology from Illumina.

[2] = system: expression of 45 genes in the epidermis; assay: in vivo study: gene expression in epidermis (TaqMan) after eight weeks of cream application; conditions: verum cream on inner forearm for eight weeks, 19 test subjects (50-65 years), 45 genes analyzed, ΔΔCt method, FIG. 3
Method: To this end, 19 test subjects (50-65 years) applied cream comprising a vehicle and a verum including dihydromyricetin to the inner forearm over a period of eight weeks. Suction blisters were then produced and the epidermis was harvested. The RNA was isolated from the epidermis samples (RNeasy Fibrous Tissue Kit, Qiagen, Hilden) and the expression of 45 genes (+3 endogenous control genes) was analyzed using the TaqMan system (7900HT Fast Real-Time PCR System, Applied Biosystems). […] The changes in expression were calculated using the ΔΔCt method.

T1 sequence (P26358 whole entry): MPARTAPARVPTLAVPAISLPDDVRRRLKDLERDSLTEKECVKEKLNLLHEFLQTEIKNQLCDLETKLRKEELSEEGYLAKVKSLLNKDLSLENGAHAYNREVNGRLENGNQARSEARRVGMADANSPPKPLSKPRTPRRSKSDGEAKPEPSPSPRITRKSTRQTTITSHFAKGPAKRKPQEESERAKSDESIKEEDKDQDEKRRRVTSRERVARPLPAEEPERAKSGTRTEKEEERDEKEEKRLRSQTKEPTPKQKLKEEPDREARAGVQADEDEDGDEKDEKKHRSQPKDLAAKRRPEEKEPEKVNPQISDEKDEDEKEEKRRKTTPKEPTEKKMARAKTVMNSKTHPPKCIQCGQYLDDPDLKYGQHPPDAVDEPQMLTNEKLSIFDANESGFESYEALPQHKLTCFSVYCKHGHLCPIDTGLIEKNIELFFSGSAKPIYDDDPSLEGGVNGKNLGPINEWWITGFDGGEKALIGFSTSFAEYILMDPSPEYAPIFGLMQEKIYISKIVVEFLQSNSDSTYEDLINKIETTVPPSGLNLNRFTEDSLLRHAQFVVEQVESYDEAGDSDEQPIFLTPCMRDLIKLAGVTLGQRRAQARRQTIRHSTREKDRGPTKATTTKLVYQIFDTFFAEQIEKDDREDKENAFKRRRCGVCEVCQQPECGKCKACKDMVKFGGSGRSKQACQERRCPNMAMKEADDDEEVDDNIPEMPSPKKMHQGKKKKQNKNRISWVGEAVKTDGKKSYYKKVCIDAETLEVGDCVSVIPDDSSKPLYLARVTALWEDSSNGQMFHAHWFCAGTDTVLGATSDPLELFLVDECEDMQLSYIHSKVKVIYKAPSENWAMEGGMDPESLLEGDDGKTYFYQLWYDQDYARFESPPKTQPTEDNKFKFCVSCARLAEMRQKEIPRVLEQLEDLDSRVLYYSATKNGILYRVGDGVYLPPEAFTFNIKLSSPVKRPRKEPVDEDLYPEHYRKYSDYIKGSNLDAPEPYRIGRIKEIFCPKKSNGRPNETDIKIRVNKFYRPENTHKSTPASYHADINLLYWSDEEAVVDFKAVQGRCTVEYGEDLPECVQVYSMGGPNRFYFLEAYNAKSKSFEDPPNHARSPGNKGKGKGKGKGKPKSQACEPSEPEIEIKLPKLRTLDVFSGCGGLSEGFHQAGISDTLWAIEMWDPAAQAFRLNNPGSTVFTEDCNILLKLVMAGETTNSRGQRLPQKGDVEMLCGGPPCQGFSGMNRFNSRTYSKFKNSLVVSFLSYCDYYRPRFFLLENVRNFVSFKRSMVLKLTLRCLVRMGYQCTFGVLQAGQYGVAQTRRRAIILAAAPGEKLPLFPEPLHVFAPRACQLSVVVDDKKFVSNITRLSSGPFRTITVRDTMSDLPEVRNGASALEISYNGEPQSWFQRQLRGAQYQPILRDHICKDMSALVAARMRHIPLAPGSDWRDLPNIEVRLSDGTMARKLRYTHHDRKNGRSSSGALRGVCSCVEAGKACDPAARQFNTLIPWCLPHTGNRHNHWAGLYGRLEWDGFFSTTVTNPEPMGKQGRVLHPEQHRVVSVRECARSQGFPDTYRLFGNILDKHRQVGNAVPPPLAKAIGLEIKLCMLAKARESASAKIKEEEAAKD

O=C1c2c(O)cc(O)cc2O[C@H](c2cc(O)c(O)c(O)c2)[C@H]1O [dihydromyricetin, (2R,3R)-3,5,7-trihydroxy-2-(3,4,5-trihydroxyphenyl)chroman-4-one]
inhibition of the recombinant DNMT1 enzyme (recombinant DNMT1 enzyme): concentration-dependent inhibition
methylation changes at CpGs at which the vehicle-treated area did not show any significant methylation changes [1]: 16 389 CpGs
genes with significant increase in expression in comparison to vehicle-treated control samples [2]: 16 genes
